Assay results reported in patent US9345691B2, “Beta-lactam compounds for enhancing T cell-mediated immune responses” (STEM CELL MEDICINE LTD., priority 2011, dated 2016).
“Also recorded” adds a separate entry of the source.

Experiments:
CD4+ human T cells = experiment: Human Autoimmune and Inflammatory Response Gene Array, anti-CD3 stimulated T cells; format: cell-based; conditions: 120 min anti-CD3; for % decrease by Cef.: cefuroxime 50 μg/ml, ±SD, relative to control
Procedure: T cells were purified from the peripheral bloods of healthy human donors (Blood Bank, Sheba Medical center). The whole blood was incubated (20 min, 22° C.) with RosetteSep™ human T cell enrichment mixture (StemCell Technologies, Vancouver, Canada). The remaining unsedimented cells were then loaded onto lymphocyte separation medium (ICN Biomedicals, Irvine, Calif.), isolated by density centrifugation, and washed with PBS. […] In a second round of purification, CD3^+ T cells were labeled for selection with a magnetically coupled mAb against CD4 (Miltenyi Biotec, Auburn, Calif.).
Human CD4 T cells were isolated as described, and incubated in 24 well plates (Nunc), 4×10^6 cells/ml with plate bound anti-human CD3 (OKT3) at 2 μg/ml. The stimulation was performed in RPMI medium supplemented with 0.1% BSA. […] RNA was extracted from samples and used to prepare probes for gene array in accord with the manufacturer's instructions (SuperArray Bioscience, Frederick, Md.). Adequate labeling of the probes was tested before hybridization. Three healthy donors were tested in stimulation with cefuroxime. The membranes were analyzed online with the Image Data Acquisition and Expression Analysis (SuperArray Bioscience).
The Human Autoimmune and Inflammatory Response Gene Array (SuperArray Bioscience corporation, Frederick, Md., USA) was used for analysis of gene expression by the T cells. This array contains 367 genes including cytokines, chemokines and their receptors, transcription factors and signaling proteins. […] Analysis of the results was performed using the GEArray analysis program (www.SuperArray.com). […] To verify the results detected by the gene array study, a panel of six genes was designed and tested by real-time PCR: CCR4, ACVR2, JAK1, STAT4, TLR2 and NFKBIE. The cDNA that was used was prepared from the same RNA used for the gene array experiment.

[1] = test system: encephalitogenic BP10 T-cell line; experiment: Adoptive EAE by BP10 line stimulated in vitro with test substance; format: in vivo, rat
Description: The ability of a compound to enhance T cell activity may be determined, for example, using an in vivo assay testing the effect of a given compound on the severity of adoptive (passive) EAE, namely, EAE which is induced by the injection of activated encephalitogenic T cell line to the model animal. In order to test a compound, the encephalitogenic T cells are activated in the presence of the compound prior to injection. An exemplary procedure is described in the Examples section hereinbelow.
Antigen-specific T-cell lines were established from lymph node cells that had been stimulated with myelin basic protein (MBP; 10 μg/ml) for 3 days in stimulation medium as described below. Following stimulation, the T-cell blasts were isolated on Lympho-prep (Nycomed Pharma, Oslo, Norway) and seeded in propagation medium. Propagation medium was identical to stimulation medium without autologous serum, but supplemented with fetal calf serum 10% and T-cell growth factors from the supernatant of Con A stimulated spleen cells 10% (Mor et al. (1990) J Clin Invest, 85, 1594-1598). Animals were injected intra-peritoneally with 10^7 MBP-stimulated T cells, following 6-8 cycles of in vitro stimulations. It is known that MBP-reactive lines undergo a reduction in pathogenicity after 6 or more in vitro stimulations. In some experiments the BP10 line was stimulated with phorbol myristate acetate (PMA; 50 ng/ml) and ionomycin (500 ng/ml) for 3 days in stimulation medium, without antigen-presenting cells.
Active EAE was induced by subcutaneous injection of 25 μg guinea-pig MBP (GpMBP) in complete Freund's adjuvant (CFA). CFA was prepared by adding 4 mg/ml Mycobacterium tuberculosis H37Ra (Difco, Mich.) to incomplete Freund's adjuvant (IFA). Adoptive EAE was transferred by intra-peritoneal injection of guinea-pig MBP-activated cells of the BP10 line as described in Mor et al. (1993) J Clin Invest, 92, 2199-2206. […] Clinical scoring was: +1, paralysis of tail; +1.5, paresis of posterior paws and ataxia; +2, paraplegia; +3, paralysis extending to thoracic spine; +4, a moribund state.
Treatment with cefuroxime in vivo could affect many different host agents involved in EAE or AA as well as influencing the rats' bacterial flora. To test whether the antibiotic might directly modify the behavior of effector T cells, an encephalitogenic T-cell line was stimulated in the presence or absence of cefuroxime in vitro. The weakly encephalitogenic BP10 line was used, and was stimulated for 3 days with MBP in the presence or absence of cefuroxime (50 μg/ml). The activated T cells were then washed to remove the antibiotic, the T cells were injected intra-peritoneally into naïve recipient rats (10^7 per rat), and EAE was scored. The BP10 line at later stimulations was used, when its pathogenic potential is reduced, allowing to detect both suppression and enhancement of disease. […] To rule out antigen presenting cells (APC) as the target of the beta-lactam antibiotic, the encephalitogenic BP10 line was stimulated without APC using PMA (50 ng/ml) and Ionomycin (500 ng/ml) in the presence or absence of cefuroxime.

## CO/N=C(\C(=O)N[C@@H]1C(=O)N2C(C(=O)O)=C(COC(N)=O)CS[C@H]12)c1ccco1 [cefuroxime]
CD4+ human T cells; array of 367 genes, 50 μg/ml
  number of genes down-regulated: Fifty-seven
CD4+ human T cells; gene ACTB
  % decrease by Cef.: 49 ± 11%
CD4+ human T cells; gene ACVR1
  % decrease by Cef.: 42 ± 0.7%
CD4+ human T cells; gene ACVR2
  % decrease by Cef.: 60 ± 14.8%
CD4+ human T cells; gene CCL5
  % decrease by Cef.: 21 ± 5.6%
CD4+ human T cells; gene CCL11
  % decrease by Cef.: 18 ± 6.6%
CD4+ human T cells; gene CCR4
  % decrease by Cef.: 39 ± 2%
CD4+ human T cells; gene CCR6
  % decrease by Cef.: 53 ± 5.6%
CD4+ human T cells; gene CCR7
  % decrease by Cef.: 38 ± 8.1%
CD4+ human T cells; gene CD28
  % decrease by Cef.: 51 ± 2.1%
CD4+ human T cells; gene CD40LG
  % decrease by Cef.: 33 ± 7.1%
CD4+ human T cells; gene CREB1
  % decrease by Cef.: 19 ± 4.9%
CD4+ human T cells; gene CREBBP
  % decrease by Cef.: 40 ± 9.9%
CD4+ human T cells; gene CXCL10
  % decrease by Cef.: 39 ± 3%
CD4+ human T cells; gene EGR3
  % decrease by Cef.: 38 ± 2.8%
CD4+ human T cells; gene GFI1
  % decrease by Cef.: 45 ± 14%
CD4+ human T cells; gene HRAS
  % decrease by Cef.: 30 ± 9.8%
CD4+ human T cells; gene IL1B
  % decrease by Cef.: 54 ± 7.0%
CD4+ human T cells; gene IL2RB
  % decrease by Cef.: 50 ± 9.9%
CD4+ human T cells; gene IL2RG
  % decrease by Cef.: 57 ± 9.8%
CD4+ human T cells; gene IL9R
  % decrease by Cef.: 27.5 ± 3%
CD4+ human T cells; gene IL16
  % decrease by Cef.: 50 ± 7.8%
CD4+ human T cells; gene IRAK1
  % decrease by Cef.: 44 ± 2.1%
CD4+ human T cells; gene JAK1
  % decrease by Cef.: 53 ± 13.4%
CD4+ human T cells; gene JUN
  % decrease by Cef.: 49 ± 2.2%
CD4+ human T cells; gene LTA
  % decrease by Cef.: 17 ± 10%
CD4+ human T cells; gene MAP2K4
  % decrease by Cef.: 52 ± 14.1%
CD4+ human T cells; gene MAP3K1
  % decrease by Cef.: 53 ± 12%
CD4+ human T cells; gene MAP3K2
  % decrease by Cef.: 36 ± 12%
CD4+ human T cells; gene MAP3K7
  % decrease by Cef.: 46 ± 9.9%
CD4+ human T cells; gene MAPK9
  % decrease by Cef.: 42 ± 10.9%
CD4+ human T cells; gene NFKB1
  % decrease by Cef.: 43 ± 3.5%
CD4+ human T cells; gene NFKB2
  % decrease by Cef.: 53 ± 10.6%
CD4+ human T cells; gene NFKBIE
  % decrease by Cef.: 63 ± 11%
CD4+ human T cells; gene NFKBIL1
  % decrease by Cef.: 54 ± 12.5%
CD4+ human T cells; gene PAK1
  % decrease by Cef.: 40 ± 2.4%
CD4+ human T cells; gene PIN1
  % decrease by Cef.: 45 ± 12.1%
CD4+ human T cells; gene RANBP5
  % decrease by Cef.: 33 ± 3.5%
CD4+ human T cells; gene REL
  % decrease by Cef.: 45 ± 1.9%
CD4+ human T cells; gene RFX5
  % decrease by Cef.: 36 ± 4.2%
CD4+ human T cells; gene RFXAP
  % decrease by Cef.: 27 ± 12%
CD4+ human T cells; gene SDF2
  % decrease by Cef.: 28 ± 12%
CD4+ human T cells; gene SELL
  % decrease by Cef.: 46 ± 7.0%
CD4+ human T cells; gene SMAD4
  % decrease by Cef.: 47 ± 7.0%
CD4+ human T cells; gene SMAD7
  % decrease by Cef.: 47 ± 4.2%
CD4+ human T cells; gene SP3
  % decrease by Cef.: 39 ± 9.9%
CD4+ human T cells; gene SRF
  % decrease by Cef.: 38 ± 1.9%
CD4+ human T cells; gene STAT1
  % decrease by Cef.: 32 ± 11%
CD4+ human T cells; gene STAT4
  % decrease by Cef.: 47 ± 9.3%
CD4+ human T cells; gene STAT6
  % decrease by Cef.: 47 ± 7.9%
CD4+ human T cells; gene TGFBR3
  % decrease by Cef.: 44 ± 3.5%
CD4+ human T cells; gene TGIF
  % decrease by Cef.: 43 ± 3.5%
CD4+ human T cells; gene TLR2
  % decrease by Cef.: 52 ± 14%
CD4+ human T cells; gene TNFRSF11A
  % decrease by Cef.: 43 ± 2%
CD4+ human T cells; gene TNFα
  % decrease by Cef.: 29 ± 8.5%
CD4+ human T cells; gene TRAF5
  % decrease by Cef.: 43 ± 2.2%
CD4+ human T cells; gene TRAF6
  % decrease by Cef.: 43 ± 3.5%
CD4+ human T cells; gene YY1
  % decrease by Cef.: 23 ± 9.1%
[1]; BP10 line stimulated 3 days with MBP in presence of 50 μg/ml, 10^7 cells IP per rat
  severity of adoptive EAE: markedly enhanced the manifestations of EAE; also recorded: enhanced EAE severity; also recorded: enhances the pathogenicity of the BP10 line
[1]; BP10 line stimulated without APC using PMA (50 ng/ml) and Ionomycin (500 ng/ml)
  severity of adoptive EAE: significantly more severe
[1]; dose-response, BP10 line stimulated in presence of 5 μg/ml
  severity of adoptive EAE: ineffective
[1]; dose-response, BP10 line stimulated in presence of 25 μg/ml
  severity of adoptive EAE: enhancing effect similar to that of 50 μg/ml
